Assay [1] deals with T1, HER2 (Homo sapiens, UniProt P04626). Description: inhibition of HER2 in vitro. It is filed as biochemical. The text has this: (§1) Tucatinib inhibits the HER2-driven mitogen-activated protein and PI3 kinase signaling pathways, resulting in inhibition of tumor cell proliferation, survival, and metastasis.
In assay [2] the target is T1, HER2. As to the kind of experiment: HER2 internalization assay using Trastuzumab-AF488. It is filed as cell-based. Particulars: tucatinib 100 nM, SK-BR-3 cells, imaged at time points spanning 72 hours. The procedure: (§2) To probe the dynamics of HER2 at the cell surface upon binding to antibody therapeutics in the presence or absence of tucatinib (100 nM), SK-BR-3 cells were incubated with fluorescently-labeled trastuzumab (Trastuzumab-AF488) to mark HER2 at the cell surface. Excess antibody was washed out. Cells were imaged at time points spanning 72 hours to observe internalization of surface-bound antibody. […] Concurrent experiments were conducted with trastuzumab labeled with QF (Trastuzumab-QF) […], a quenched fluorophore which fluoresces upon lysosomal processing and can serve as a proxy for antibody catabolism.

In assay [3] the target is T1, HER2. As to the kind of experiment: HER2 internalization assay using Trastuzumab-QF (lysosomal processing). It is filed as cell-based. As to conditions: tucatinib 100 nM; SK-BR-3 cells; Trastuzumab-QF in the presence of chloroquine. How it is done: as §2
Assay [4] addresses T1, HER2. As to the kind of experiment: cellular signaling assays, selectivity for HER2 compared to EGFR. It is filed as cell-based. The arrangement: four different HER2-amplified breast cancer cell lines (BT-474, SK-BR-3, HCC-1419, and UACC-893); endogenous in cells; host or cells: BT-474, SK-BR-3, HCC-1419, UACC-893.
Description: as §1

For assay [5], the target named is T1, HER2. Description: HER2 total protein levels by western blot analysis (WES system), normalized against GAPDH. Details: four different HER2-amplified breast cancer cell lines (BT-474, SK-BR-3, HCC-1419, and UACC-893); endogenous in cells; host or cells: BT-474, SK-BR-3, HCC-1419, UACC-893. It is filed as cell-based. As to conditions: 30 nM or 100 nM tucatinib, 24 hours and 48 hours; BT-474, SK-BR-3, HCC-1419 and UACC-893 HER2-amplified breast cancer cell lines. The procedure: (§3) Protein lysates were generated from cells harvested at each time point, HER2 total protein levels were determined by western blot analysis using a WES system, and normalized against GAPDH levels as a loading control. As shown in FIG. 1A-1D, in all four cell lines tested, HER2 total protein levels increased after treatment with tucatinib relative to untreated cell lines. Total HER2 protein levels are shown as a percentage of the total HER2 protein levels of untreated cells. Plasma membrane-bound levels of HER2 were determined by quantitative FACS (qFACS) analysis after exclusion of dead cells. As shown in FIG. 1E-1H, treatment with either 30 nM or 100 nM increased plasma membrane-bound HER2 protein levels in all four cell lines relative to untreated cell lines. Plasma membrane-bound HER2 protein levels are shown as a percentage of the plasma membrane-bound HER2 protein levels of untreated cells.
On the technique in general: A western blot detects proteins with antibodies after separation by electrophoresis.

Assay [6] deals with T1, HER2. As to the kind of experiment: plasma membrane-bound HER2 levels by quantitative FACS (qFACS). Type of assay: cell-based. Details: four different HER2-amplified breast cancer cell lines (BT-474, SK-BR-3, HCC-1419, and UACC-893); endogenous in cells; host or cells: BT-474, SK-BR-3, HCC-1419, UACC-893. Particulars: 30 nM or 100 nM tucatinib, 24 hours and 48 hours; BT-474, SK-BR-3, HCC-1419 and UACC-893 HER2-amplified breast cancer cell lines. The procedure:
as §3

T1 sequence (P04626 23-1255): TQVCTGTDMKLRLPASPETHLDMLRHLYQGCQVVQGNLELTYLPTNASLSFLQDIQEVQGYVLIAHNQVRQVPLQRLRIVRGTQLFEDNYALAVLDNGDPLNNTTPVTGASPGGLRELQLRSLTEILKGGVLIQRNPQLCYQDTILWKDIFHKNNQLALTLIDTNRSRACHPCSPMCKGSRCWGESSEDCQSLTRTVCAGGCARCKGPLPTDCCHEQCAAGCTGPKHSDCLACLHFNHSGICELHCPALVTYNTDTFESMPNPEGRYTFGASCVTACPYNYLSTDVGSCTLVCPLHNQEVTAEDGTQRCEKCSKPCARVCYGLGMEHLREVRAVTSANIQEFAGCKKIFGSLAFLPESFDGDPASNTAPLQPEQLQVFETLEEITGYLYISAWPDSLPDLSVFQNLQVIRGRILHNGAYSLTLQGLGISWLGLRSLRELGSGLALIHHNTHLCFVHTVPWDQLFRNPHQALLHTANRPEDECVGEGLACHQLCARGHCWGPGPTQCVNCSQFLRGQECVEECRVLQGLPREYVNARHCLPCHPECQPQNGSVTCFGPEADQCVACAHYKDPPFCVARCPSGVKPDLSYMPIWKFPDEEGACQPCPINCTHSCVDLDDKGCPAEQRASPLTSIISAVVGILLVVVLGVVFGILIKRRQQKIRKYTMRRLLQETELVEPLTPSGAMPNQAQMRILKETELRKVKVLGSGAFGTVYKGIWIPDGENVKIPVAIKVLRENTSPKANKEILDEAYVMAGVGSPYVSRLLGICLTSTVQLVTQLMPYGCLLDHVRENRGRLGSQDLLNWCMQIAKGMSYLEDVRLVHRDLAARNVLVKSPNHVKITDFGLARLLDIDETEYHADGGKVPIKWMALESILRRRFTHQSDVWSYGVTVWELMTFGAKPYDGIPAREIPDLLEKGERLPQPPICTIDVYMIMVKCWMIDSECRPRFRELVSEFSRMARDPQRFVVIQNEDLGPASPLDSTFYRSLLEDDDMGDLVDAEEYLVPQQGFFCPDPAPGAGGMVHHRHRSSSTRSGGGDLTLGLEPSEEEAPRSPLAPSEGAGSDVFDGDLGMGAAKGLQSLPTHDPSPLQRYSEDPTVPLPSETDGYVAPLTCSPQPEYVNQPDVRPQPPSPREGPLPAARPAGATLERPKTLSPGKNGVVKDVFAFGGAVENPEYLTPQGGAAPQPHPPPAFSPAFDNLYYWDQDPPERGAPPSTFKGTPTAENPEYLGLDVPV

For the compound `Cc1cc(Nc2ncnc3ccc(NC4=NC(C)(C)CO4)cc23)ccc1Oc1ccn2ncnc2c1` [tucatinib, N^4-(4-([1,2,4]triazolo[1,5-a]pyridin-7-yloxy)-3-methylphenyl)-N^6-(4,4-dimethyl-4,5-dihydrooxazol-2-yl) quinazoline-4,6-diamine], on HER2 [1], the “inhibition of HER2 in vitro” value is listed as “potent inhibitor of HER2 in vitro”. Further, on HER2 [2], the “dwell time of HER2 at the cell surface” value is “increased”. Besides, on HER2 [3], the “internalization and lysosomal processing of HER2-bound antibody” value is “rapid internalization and lysosomal processing”. The “selectivity for HER2 compared to the closely related kinase EGFR” value at HER2 [4] is listed as > 1000 fold. In addition, the “HER2 total protein levels relative to untreated cell lines” value on HER2 [5] is listed as “increased”. On HER2 [6], the “plasma membrane-bound HER2 protein levels relative to untreated cell lines” value is listed as “increased”.

Source of the values: US20260199346A1, “METHODS OF TREATING SOLID TUMORS DRIVEN BY HER2 ALTERATIONS WITH TUCATINIB IN COMBINATION WITH AN ANTI-HER2 ANTIBODY” (Seagen Inc., priority 2020, published 2026).
